Reference: paper PMC3683333, “^11C-LY2428703, a positron emission tomographic radioligand for the metabotropic glutamate receptor 1, is unsuitable for imaging in monkey and human brains” (EJNMMI Research, 2013)
Like-named read-outs stand apart in the source and are kept apart here. Marks after values point to notes of the source that are not given here.

What was measured:
[1] = design: method as in PMID 23135321; conditions: rats; cited from earlier work
[2] = In vitro stability in human blood and plasma; type: in vitro ADME; conditions: room temperature, 30 min
Description: Nonradioactive anticoagulated blood was obtained on the day of study from either human or nonhuman primates. Aliquots of ^11C-LY2428703 (about 150 kBq) were added to 0.5 mL of whole blood or 0.5 mL of plasma. Samples were incubated at room temperature for 30 min, after which either 450 μL of the radioactive plasma was added to 720 μL of acetonitrile or 200 μL of the radioactive whole blood was added to 300 μL of water. The tube containing the blood suspension was shaken well to mix and lyse the blood cells. Seven hundred and twenty microliters of acetonitrile was subsequently added and mixed well to precipitate the proteins, followed by 100 μL of water, which was again re-mixed. Radioactivity in the tubes was measured in a gamma counter and then centrifuged at 10,000×g for 1 min. The clear supernatant liquid was injected into the high-performance liquid chromatography (HPLC) column and the precipitate counted to calculate the recovery of radioactivity into the acetonitrile.
The stability of the radioligand in whole blood or plasma was calculated as the ratio of the HPLC % composition of samples divided by the radiochemical purity of the radioligand.

[3] = Pharmacological effects of injection, monkey; type: in vivo, rhesus monkeys; conditions: after injection
Description: PET images were acquired using either the high-resolution research tomograph (HRRT) or the FOCUS 220 scanner (Siemens/CPS, Knoxville, TN, USA) for 120 min in 33 frames, with frame durations ranging from 30 s to 5 min, and correcting for attenuation and scatter. About 2 h before the PET scan, anesthesia was initiated with ketamine (10 mg/kg IM) and then maintained with 1% to 3% isoflurane. Electrocardiograph, body temperature, heart rate, and respiration rate were measured throughout the experiment. At baseline, the injected activity was 210 ± 51 MBq (specific activity at time of injection 43.2 ± 25.6 GBq/μmol, mass dose 6.9 ± 4.7 nmol or 0.62 ± 0.35 nmol/kg). Tissue time-activity curves were obtained from semi-automatic regions of interest encompassing the whole cerebellum and the rest of the brain. Brain uptake was expressed as standardized uptake value (SUV). Arterial input function was obtained for eight scans: four at baseline, two after blocking with nonradioactive LY2428703, one after blocking with DCPQ, and one after blocking with elacridar. Blood samples (0.5 mL each) were drawn through a port connected to the femoral artery at 15-s intervals until 2 min, followed by 1-mL samples at 3, 5, 10, 30, 60, 90, and 120 min. The plasma time-activity curve was corrected for the fraction of unchanged radioligand following the procedure detailed above.

[4] = Plasma free fraction by ultrafiltration, monkey; type: in vitro ADME, rhesus monkeys
Description: The plasma free fraction (fp) of ^11C-LY2428703 was measured by ultrafiltration through membrane filters (Centrifree; Millipore, Billerica, MA, USA) as previously described. Briefly, about 740 kBq of ^11C-LY2428703 (approximately 5 μL) was added to 650 μL of plasma. The mixture was incubated at room temperature for 10 min and then processed as described previously. When radioactivities for the filter components were high, they were allowed to decay until they were within the optimal range of the γ-counter. Determining the free fraction during preblocking was done by drawing blood samples after the preblocking treatments were initiated but immediately before administering the radioligand.
To assess the effects of blocking agents on the fP of ^11C-LY2428703, fP was measured in three monkeys both at baseline and after blockade. The first monkey was blocked with cold LY2428703 and fP was measured 2.5 min after blocker injection (which corresponds to the maximal concentration in plasma of LY2428703), and again at 40 min. The other two monkeys were blocked with DCPQ and elacridar, respectively.

mGluR1 = biological target: T1, mGluR1 (Rattus norvegicus, UniProt P23385); experiment: Saturation binding assay with [^3H]LY456066, rat cerebellar membranes; design: species or system Sprague–Dawley rats; conditions: rats; fp from ref 10
T1 construct: P2 membrane fractions were prepared from the cerebella of male Sprague–Dawley rats; from tissue; host or cells: rat cerebellum, P2 membrane fraction
Description: P2 membrane fractions were prepared from the cerebella of male Sprague–Dawley rats (n = 3), male rhesus monkeys (n = 3), and female humans (n = 4). […] Nonspecific binding was defined by heterologous displacement of 1 μM LY480084 (mGlu1 antagonist) in select wells. Plates were incubated on ice for 75 min and membranes harvested on 0.3% polyethylenimine pretreated Wallac filter mats using a Tomtec Harvester MachII (Tomtec, Hamden, CT, USA). Dissociation constant (KD) and receptor density (Bmax) values were obtained in GraphPad Prism using standard nonlinear one-site binding equations. Data are presented as mean ± SEM (n = 3 to 4); one-way analysis of variance followed by Tukey's post hoc test.

[5] = Arterial plasma analysis after injection, monkey; type: in vivo, rhesus monkeys; conditions: after intravenous injection
Description: Plasma analyses were performed on a reverse-phase chromatography C18 column (Novapak, 4 μm, 100 × 8 mm, Waters Corp. Milford, MA, USA) using Radial-Pak® compression module RCM-100 with a sentry pre-column. Human plasma analyses were performed with a mobile phase of […], at a flow rate of 2.5 mL/min; nonhuman primate plasma samples were analyzed with a mobile phase of MeOH/H2O/Et3N, 72.5:27.5:0.1 by volume, at a flow rate of 1.5 mL/min. To compare the outcome from both systems, elution volume is reported rather than retention time.
Arterial plasma was analyzed as previously described. Briefly, after ^11C-LY2428703 injection into either human or nonhuman primate, the input function was determined by periodically drawing anticoagulated blood samples. […] The samples were counted in the γ-counter and centrifuged at 10,000×g for 1 min. […] The precipitates were then counted for radioactivity to allow the calculation of the efficiency of recovery of radioactivity in the acetonitrile. […]
PET images were acquired using either the high-resolution research tomograph (HRRT) or the FOCUS 220 scanner (Siemens/CPS, Knoxville, TN, USA) for 120 min in 33 frames, with frame durations ranging from 30 s to 5 min, and correcting for attenuation and scatter. […] Electrocardiograph, body temperature, heart rate, and respiration rate were measured throughout the experiment. […]

T1 sequence (P23385 19-1199): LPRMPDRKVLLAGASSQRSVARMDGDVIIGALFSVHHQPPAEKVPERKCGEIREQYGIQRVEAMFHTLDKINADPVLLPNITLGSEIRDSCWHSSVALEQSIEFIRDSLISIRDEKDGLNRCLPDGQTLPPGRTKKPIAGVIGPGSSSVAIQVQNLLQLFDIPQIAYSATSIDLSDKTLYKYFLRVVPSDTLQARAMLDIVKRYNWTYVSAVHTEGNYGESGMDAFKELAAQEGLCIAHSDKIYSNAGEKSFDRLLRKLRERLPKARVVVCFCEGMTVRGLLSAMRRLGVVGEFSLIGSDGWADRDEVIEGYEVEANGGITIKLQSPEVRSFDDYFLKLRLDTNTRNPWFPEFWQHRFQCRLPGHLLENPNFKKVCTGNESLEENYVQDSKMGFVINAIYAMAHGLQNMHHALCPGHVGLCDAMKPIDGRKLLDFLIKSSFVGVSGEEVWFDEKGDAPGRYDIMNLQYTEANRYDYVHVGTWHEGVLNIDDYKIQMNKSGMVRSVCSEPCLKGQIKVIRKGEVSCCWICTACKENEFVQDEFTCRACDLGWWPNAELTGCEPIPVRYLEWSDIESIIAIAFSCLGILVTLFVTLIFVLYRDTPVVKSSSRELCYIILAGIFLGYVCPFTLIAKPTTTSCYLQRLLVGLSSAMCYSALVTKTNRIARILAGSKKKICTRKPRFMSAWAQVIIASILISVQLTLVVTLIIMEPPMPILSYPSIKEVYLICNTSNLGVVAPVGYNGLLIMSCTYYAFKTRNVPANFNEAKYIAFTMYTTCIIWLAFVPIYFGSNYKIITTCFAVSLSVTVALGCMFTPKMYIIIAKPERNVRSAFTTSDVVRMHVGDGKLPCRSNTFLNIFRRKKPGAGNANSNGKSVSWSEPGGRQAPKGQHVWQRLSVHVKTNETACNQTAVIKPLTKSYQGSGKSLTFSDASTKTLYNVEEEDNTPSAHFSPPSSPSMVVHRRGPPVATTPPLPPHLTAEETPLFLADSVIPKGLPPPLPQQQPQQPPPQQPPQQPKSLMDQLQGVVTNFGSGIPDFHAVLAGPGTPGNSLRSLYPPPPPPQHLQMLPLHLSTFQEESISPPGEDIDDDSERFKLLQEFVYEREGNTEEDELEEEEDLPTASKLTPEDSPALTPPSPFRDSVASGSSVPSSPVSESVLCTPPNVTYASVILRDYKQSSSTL

## Cc1c(-c2ccc(O[11CH3])cc2)nsc1NC(=O)[C@@H]1C[C@H]1C [^11C-LY2428703]
[1]
  fp (plasma free fraction): 2.7^a %
[2]; human plasma
  tracer stability: 99.4 ± 1.4%
[2]; human whole blood
  tracer stability: 99.5 ± 1.1%
[3]
  changes in pulse/heart rate, respiratory rate, electrocardiogram: no significant changes
[4]; average of three baseline monkeys
  fp (plasma free fraction): 0.884%
[4]; monkey blocked with nonradioactive LY2428703: baseline
  fp: 1.25 ± 0.12%
[4]; monkey, 2.5 min after blockade with nonradioactive LY2428703
  fp: 1.12 ± 0.18%
[4]; monkey, 40 min after blockade with nonradioactive LY2428703
  fp: 0.89 ± 0.14%
[4]; monkey, DCPQ blocking experiment: baseline
  fp: 1.074%
[4]; monkey, after DCPQ blockade
  fp: 1.100%
[4]; monkey, after elacridar blockade
  fp: 0.912%
[4]; monkey, elacridar blocking experiment: baseline
  fp: 0.456%
mGluR1
  fp × Bmax/KD (=VS), effective BP: 0.683
[5]
  time of peak plasma concentration: 1 to 1.5 min
